Results taken from ChEMBL document CHEMBL5321276, “Novel Benzimidazoles as Potent Small-Molecule Inhibitors and Degraders of V-Domain Ig Suppressor of T-Cell Activation (VISTA)” (J Med Chem, 2023).
Calls of active or inactive are those of the source. No cut-off for these calls is given here.

Assays:
HepG2 [1] = test: Induction of autophagy in human HepG2 cells assessed as increase in LC3II expression at 10 uM measured after 24 hrs in presence of chloroquine by Western blotting analysis; format: functional, cell-based
HepG2 [2] = test: Induction of autophagy in human HepG2 cells assessed as induction of VISTA degradation at 10 uM measured after 24 hrs in presence of MG132 by Western blotting analysis; format: functional, cell-based
CT26 [3] = test: Antitumor activity against po dosed mouse CT26 cells implanted in BALB/c mouse assessed as increase in infiltration of CD8 positive cells in tumor administered once daily for 15 days by DAPI staining based fluorescent inverted microscopic analysis; format: functional, organism-based; conditions: dose 30-120 mg/kg, time 15.0 day
HepG2 [4] = test: Induction of autophagy in human HepG2 cells assessed as induction of VISTA degradation at 5 uM by Western blotting analysis; format: functional, cell-based
CT26 [5] = test: Antitumor activity against mouse CT26 cells implanted in BALB/c mouse assessed as tumor shrinkage at 30 to 120 mg/kg, po administered once daily for 15 days by Hematoxylin and eosin based analysis; format: functional, organism-based; conditions: dose 30-120 mg/kg, time 15.0 day
CT26 [6] = test: Antitumor activity against mouse CT26 cells implanted in BALB/c mouse assessed as tumor growth inhibition at 120 mg/kg, po administered once daily for 15 days; format: functional; conditions: CT26, 360 h, time 15 day, read-out: TGI
CT26 [7] = test: Antitumor activity against mouse CT26 cells implanted in BALB/c mouse assessed as tumor growth inhibition at 60 mg/kg, po administered once daily for 15 days; format: functional; conditions: CT26, 360 h, time 15 day, read-out: TGI
MDA-MB-231 [8] = test: Cytotoxicity against human MDA-MB-231 cells assessed as reduction in cell viability at 5 uM; format: toxicity, cell-based; conditions: mda-mb-231, 5 µM
HepG2 [9] = test: Induction of autophagy in human HepG2 cells assessed as induction of VISTA degradation at 10 uM measured after 24 hrs in presence of 3-MA by Western blotting analysis; format: functional, cell-based
HepG2 [10] = test: Induction of autophagy in human HepG2 cells assessed as induction of VISTA degradation measured after 24 hrs by Western blotting analysis; format: functional, cell-based; conditions: dose 5-10 µM
HepG2 [11] = test: Induction of autophagy in human HepG2 cells assessed as induction of VISTA degradation at 10 uM measured upto 4 hrs in presence of cycloheximide by Western blotting analysis; format: functional, cell-based
[12] = Oral bioavailability in Sprague-Dawley rat at 25 mg/kg measured upto 24 hrs by LC-MS/MS analysis; format: ADME, organism-based; conditions: in vivo
[13] = Toxicity in BALB/c mouse implanted with mouse CT26 cells assessed as reduction in body weight at 30 to 120 mg/kg, po administered once daily for 15 days; format: organism-based; conditions: in vivo, 360 h, dose 30-120 mg/kg, time 15 day
CT26 [14] = test: Antitumor activity against mouse CT26 cells implanted in BALB/c mouse assessed as tumor growth inhibition at 30 mg/kg, po administered once daily for 15 days; format: functional; conditions: CT26, 360 h, time 15 day, read-out: TGI
CT26 [15] = test: Antitumor activity against po dosed mouse CT26 cells implanted in BALB/c mouse assessed as reduction in tumor growth administered once daily for 15 days; format: functional, organism-based; conditions: dose 30-120 mg/kg, time 15.0 day
CT26 [16] = test: Antitumor activity against mouse CT26 cells implanted in BALB/c mouse assessed as tumor growth delay at 30 to 120 mg/kg, po administered once daily for 15 days by Hematoxylin and eosin based analysis; format: functional, organism-based; conditions: dose 30-120 mg/kg, time 15.0 day
[17] = target: T1, V-type immunoglobulin domain-containing suppressor of T-cell activation (Homo sapiens) (UniProt Q9H7M9); test: Inhibition of Fc fused VISTA in CD3/CD28/CD2 T cell activator stimulated human PBMC cells assessed as induction of IFN-gamma secretion at 5 to 10 uM measured after 48 hrs by ELISA assay; format: cell-based; conditions: dose 5-10 µM
T1 sequence (whole entry): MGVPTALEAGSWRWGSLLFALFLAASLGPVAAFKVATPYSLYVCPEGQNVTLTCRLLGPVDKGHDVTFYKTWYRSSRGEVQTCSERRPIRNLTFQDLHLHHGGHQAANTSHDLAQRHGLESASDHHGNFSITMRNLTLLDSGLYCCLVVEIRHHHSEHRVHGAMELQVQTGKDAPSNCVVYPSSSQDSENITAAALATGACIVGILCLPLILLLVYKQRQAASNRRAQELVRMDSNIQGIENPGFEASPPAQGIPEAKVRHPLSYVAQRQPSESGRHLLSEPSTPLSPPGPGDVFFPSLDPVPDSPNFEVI

HepG2 [18] = test: Induction of autophagy in human HepG2 cells harboring adenovirus-mCherry-GFP-LC3B assessed as increase in LC3 puncta accumulation measured after 24 hrs by inverted fluorescence microscopic analysis; format: functional, cell-based; conditions: dose 5-10 µM
[19] = Toxicity in BALB/c mouse implanted with mouse CT26 cells assessed as mortality at 30 to 120 mg/kg, po administered once daily for 15 days; format: organism-based; conditions: in vivo, 360 h, dose 30-120 mg/kg, time 15 day
HepG2 [20] = test: Induction of autophagy in human HepG2 cells assessed as induction of VISTA degradation at 10 uM measured after 24 hrs in presence of chloroquine by Western blotting analysis; format: functional, cell-based
PBMC = test: Cytotoxicity against human PBMC cells assessed as reduction in cell viability at 5 uM; format: toxicity, cell-based
MDA-MB-231 [21] = test: Antitumor immunity against human MDA-MB-231 cells cocultured with CD3/CD28/CD2 T cell activator stimulated human PBMC cells assessed as reduction in cell growth by measuring LDH release pre-treated with compound for 2 hrs measured after 12 hrs; format: functional, cell-based; conditions: dose 0.313-5 µM, time 14.0 hrs
[22] = target: T2, V-type immunoglobulin domain-containing suppressor of T-cell activation (Mus musculus, UniProt Q9D659); test: Binding affinity to mouse VISTA assessed as dissociation constant incubated for 10 mins by MST assay
T2 sequence (Q9D659 whole entry): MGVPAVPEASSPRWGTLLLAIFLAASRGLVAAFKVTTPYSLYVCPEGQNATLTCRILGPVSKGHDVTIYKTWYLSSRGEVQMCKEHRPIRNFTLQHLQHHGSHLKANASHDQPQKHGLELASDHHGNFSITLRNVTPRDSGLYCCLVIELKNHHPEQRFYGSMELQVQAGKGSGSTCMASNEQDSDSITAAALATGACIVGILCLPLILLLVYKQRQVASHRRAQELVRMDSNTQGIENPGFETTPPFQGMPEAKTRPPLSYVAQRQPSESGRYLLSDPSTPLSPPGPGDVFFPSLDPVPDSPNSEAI

CT26 [23] = test: Antitumor activity against mouse CT26 cells implanted in BALB/c mouse assessed as induction of VISTA degradation in tumor at 30 to 120 mg/kg, po administered once daily for 15 days by Western blotting analysis; format: functional, organism-based; conditions: dose 30-120 mg/kg, time 15.0 day
HepG2 [24] = test: Induction of autophagy in human HepG2 cells assessed as induction of VISTA degradation at 10 uM measured after 24 hrs in presence of pepstatin A by Western blotting analysis; format: functional, cell-based
[25] = target: T3, V-type immunoglobulin domain-containing suppressor of T-cell activation (Homo sapiens, UniProt Q9H7M9); test: Binding affinity to human VISTA assessed as dissociation constant by SPR assay
T3 sequence (Q9H7M9 whole entry): T1 sequence (whole entry)

CT26 [26] = test: Antitumor activity against mouse CT26 cells implanted in BALB/c mouse assessed as reduction in tumor growth at 60 mg/kg, po administered once daily for 15 days; format: functional, organism-based; conditions: time 15.0 day

## Cc1c(-c2ccccc2)ccc2nc(-c3cccc(CNCCO)c3)[nH]c12
HepG2 [1]
  Activity: Active
HepG2 [2]
  Activity: Active
CT26 [3]
  Activity: Dose-Dependent Effect
HepG2 [4]
  Activity: Active
CT26 [5]
  Activity: Active
CT26 [6]
  inhibition in vivo at 120 mg/kg: 59%
CT26 [7]
  inhibition in vivo at 60 mg/kg: 41%
MDA-MB-231 [8]
  Activity: Non-Toxic
HepG2 [9]
  Activity: inactive
HepG2 [10]
  Activity: Dose-Dependent Effect
HepG2 [11]
  Activity: Active
[12]
  bioavailability: 16%
[13]
  Activity: Non-Toxic
CT26 [14]
  inhibition in vivo at 30 mg/kg: 29%
CT26 [15]
  Activity: Dose-Dependent Effect
CT26 [16]
  Activity: Active
[17]
  inhibition: Active
HepG2 [18]
  Activity: Dose-Dependent Effect
[19]
  Activity: Non-Toxic
HepG2 [20]
  Activity: inactive
PBMC
  Activity: Non-Toxic
MDA-MB-231 [21]
  Activity: Dose-Dependent Effect
[22]
  Kd: 6800 nM
CT26 [23]
  Activity: Active
HepG2 [24]
  Activity: inactive

## Cc1c(-c2ccccc2)ccc2nc(-c3cccc(CNC[C@H](O)CC(=O)O)c3)[nH]c12
[25]
  Kd: 1780 nM

## CC(=O)NCCNCc1cccc(-c2nc3ccc(-c4ccccc4)c(C)c3[nH]2)c1
[17]
  inhibition: Active
[25]
  Kd: 187 nM

## CC(=O)NCCNCc1cccc(-c2nc3cccc(C)c3[nH]2)c1
[25]
  Kd: 3120 nM

## CC(=O)NCCNCc1cccc(-c2nc3ccc(Br)c(C)c3[nH]2)c1
[25]
  Kd: 1160 nM

## C[C@@H](O)[C@H](NC(=O)N[C@@H](CC(N)=O)c1nc([C@@H](N)CO)no1)C(=O)O
HepG2 [4]
  Activity: inactive
CT26 [26]
  Activity: Active

## Cc1c(-c2ccccc2)ccc2nc(-c3cccc(CNCC(=O)O)c3)[nH]c12
[25]
  Kd: 1050 nM

## CC(=O)NCCNCc1ccc(-c2nc3ccc(-c4ccccc4)c(C)c3[nH]2)cc1
[17]
  inhibition: Active
[25]
  Kd: 374 nM

## Cc1c(-c2ccccc2)ccc2nc(-c3cccc(CNCCN)c3)[nH]c12
[25]
  Kd: 491 nM

## Cc1c(-c2ccccc2)ccc2nc(-c3cccc(CNCC[C@@H]4CCC(=O)N4)c3)[nH]c12
[25]
  Kd: 763 nM

## Cc1c(-c2ccccc2)ccc2nc(-c3ccc(CNCCO)cc3)[nH]c12
[25]
  Kd: 1130 nM
